According to patent US20100092526A1, “NANOEMULSION THERAPEUTIC COMPOSITIONS AND METHODS OF USING THE SAME” (NanoBio Corporation, priority 2008, published 2010):
Marks after values point to notes of the source that are not given here.

Assays:
Pseudomonas aeruginosa = assay: Quantitation of bacterial wound infection in partial thickness burn model; format: in vivo, Sprague-Dawley rats; conditions: burn + P. aeruginosa
Myeloperoxidase = assay: Detection of neutrophil sequestration (Myeloperoxidase assay) in burn model; format: in vivo, Sprague-Dawley rats; conditions: burn wound infected with P. aeruginosa; 32 h
[1] = tested on: methicillin-resistant Staphylococcus aureus (MRSA); assay: Susceptibility (MIC/MBC) of MRSA clinical isolates; format: cell-based; conditions: Staphylococcus aureus; MRSA isolates; read-out: MIC90
[2] = tested on: IL1-β, IL-6, TNF-α, CINC-1, CINC-3, IL-10 and TGF-β; assay: Dermal cytokine analysis (ELISA) in burn model; format: in vivo, Sprague-Dawley rats

NCc1ccc(S(N)(=O)=O)cc1 [Sulfamylon, mafenide acetate] was tested. Which “Animals with CFU's/g > 1 × 10^5, n (%)” value (Pseudomonas aeruginosa; 32 h) did it give?
Its value is 2 (20)* n (%).

What about the “median number of CFUs of bacteria per gram of skin tissue” value (Pseudomonas aeruginosa; topical treatment at 16 and 24 h, harvest at 32 h) of the same compound?
Its value is 3×10^4 CFUs per gram.

What about the “myeloperoxidase (dermal neutrophil sequestration)” value (Myeloperoxidase) of the same compound?
Its value is 0.08 ± 0.02 µg/mL.

And the MIC90 [1]?
Its MIC90 is > 128 µg/mL.

What about the “level of IL-10 or TGF-β in the infected burn wound” value ([2]; burn wound infected with P. aeruginosa, 32 h) of the same compound?
The value was “did not suppress”.

And the “dermal levels of proinflammatory cytokines (IL-1β, IL-6, TNF-α, CINC-1 or CINC-3) compared to controls” value ([2]; infected burn wound)?
Its value is “did not result in any significant alteration”.
